In data set [1] the target is KDR(VEGFR2) (Homo sapiens, UniProt P35968). Kind of data set: KDR enzymatic activity test, FAM-labeled peptide, Caliper. It is filed as biochemical. Conditions: FAM-labeled peptide substrate, read-out: Kinase-inhibiting activity IC50 KDR(VEGFR2). On the procedure: (§1) Test samples: Compounds in the present invention (the sequence numbers and structures thereof are shown in Table 1), dilution concentration: 0.03 μM-3 μM, a total of 10 concentration gradients.
(§2) Test method: enzymatic activity tests of Aurora kinase (including Aurora A and Aurora B) and VEGFR2 (KDR) were performed using a multi-function microplate reader.
(§3) a) 96-well plates, 10 dose groups, 3-fold serial dilutions, each well was added with DMSO, maximal concentration of 500 μM (50-fold compound).
(§4) b) 384-well plates, diluted with 1× kinase buffer (50 mM HEPES, pH 7.5; 0.0015% Brij-35; 2 mM DTT), each well containing 5× compound dissolved in 5 μL of 10% DMSO. Each well of the negative control contains 5 μL of 1× kinase buffer containing 10% DMSO.
(§5) Aurora A, Aurora B and KDR were dissolved in 1× kinase buffer and prepared as a 2.5× enzyme solution. After the compound in various concentrations was reacted with 2.5× enzyme solution at room temperature for 10 min, the FAM-labeled peptide substrate and ATP were added to initiate reaction. After incubation for 40 minutes, 25 μL of terminal solution (100 mM HEPES, pH 7.5; 0.015% Brij-35; 0.2% Coating Reagent #3; 50 mM EDTA) was added to stop the reaction, and the final data were read by Caliper.

The target in data set [2] is Aurora B (Homo sapiens, UniProt Q96GD4). The experiment in a line: Aurora B enzymatic activity test, FAM-labeled peptide, Caliper. Format: biochemical. Conditions: FAM-labeled peptide substrate, read-out: Kinase-inhibiting activity IC50 Aurora B. How it is done:
as §1, §2, §3, §4, §5

Data set [3] concerns the target T1, Aurora A (Homo sapiens, UniProt O14965).
T1 sequence (O14965 1-403): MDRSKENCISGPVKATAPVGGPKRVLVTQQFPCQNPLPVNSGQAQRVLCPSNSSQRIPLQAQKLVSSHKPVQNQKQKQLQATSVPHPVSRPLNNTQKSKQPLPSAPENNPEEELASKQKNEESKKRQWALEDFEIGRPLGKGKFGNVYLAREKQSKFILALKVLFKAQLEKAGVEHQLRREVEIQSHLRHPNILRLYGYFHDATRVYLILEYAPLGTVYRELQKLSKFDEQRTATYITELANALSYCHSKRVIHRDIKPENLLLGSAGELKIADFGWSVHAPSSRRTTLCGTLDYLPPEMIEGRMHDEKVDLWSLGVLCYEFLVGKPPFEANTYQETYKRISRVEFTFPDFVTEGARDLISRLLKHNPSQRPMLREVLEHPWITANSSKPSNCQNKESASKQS
The experiment in a line: Aurora A enzymatic activity test, FAM-labeled peptide, Caliper. Format: biochemical. Conditions: FAM-labeled peptide substrate, read-out: Kinase-inhibiting activity IC50 Aurora A. On the procedure: as §1, §2, §3, §4, §5

The nature of data set [4]: PK evaluation in beagle dogs. It is filed as in vivo. How it is done:
(§6) Test sample: crystal form I prepared in Example 17 (crystal form I of compound 29)
(1) Administration to animals: All animals were fasted for more than 12 h before administration, and fed at 4 h after the administration. […] Beagle dogs were given intravenously 1 mg/kg of crystal form I of compound 29 (prescription: 10% DMA+20% (30% Solutol)+70% saline) in a single dose, and blood was collected at 0 h before administration and 0.083, 0.25, 0.50, 1.0, 2.0, 4.0, 6.0, 8.0, 12 and 24 h after administration. Beagle dogs were given orally 2 mg/kg of crystal form I of compound 29 (Prescription: 10% DMA+20% (30% Solutol)+70% saline) in a single dose, and blood was collected at 0 h before administration and at 0.25, 0.50, 1.0, 2.0, 4.0, 6.0, 8.0, 12, and 24 h after administration, and 200 μL blood was taken through a small saphenous vein, and placed in a dried EDTA-K2 test tube. (2) Preparation of plasma: The whole blood sample was separated by low-speed centrifugation (1800 g, 5 min, 4° C.) (the whole blood was collected and placed in an ice bath, and plasma separation should be completed within 30 min) to give plasma, and the separated plasma was stored in a refrigerator at […] for analysis.
The sample to be tested (−80° C.) was taken from the refrigerator, thawed naturally at room temperature and vortexed for 5 min; 20 μL of plasma sample was accurately aspirated into a 1.5 mL centrifuge tube; added with 200 μL of internal standard working solution at a concentration of 50 ng/mL, and mixed well; after vortexed for 5 min, the mixture was centrifuged for 5 min (12000 rpm); 50 μL of supernatant was accurately aspirated into 96-well plates pre-filled with 150 μL/well of water; vortexed for 5 min, LC-MS/MS determination was performed in an injection volume of 15 μL.
The concentration of test sample was output using Analyst 1.6.1 from AB SCIEX.

In data set [5] the test system is human acute granulocytic leukemia Kasumi-1 cells xenograft. Kind of data set: In vivo pharmacodynamic study, subcutaneous xenograft tumor model. Conditions: for Tumor Weight: QD × 18, Kasumi-1 tumor-bearing mice; for Tumor Growth Inhibition rate (TGI): QD × 18, by tumor weight. More on the design: species or system CB17 SCID mice. On the procedure: as §6
Animals, Cells, Reagents & Instruments: Kasumi-1 cells, derived from ATCC.
CB17 SCID mice, 6-8 weeks, female, available from Shanghai Lingchang Biotechnology Co., Ltd.
Kasumi-1 cells were cultured in vitro in a single layer, and culture conditions were as follows: RPMI1640 medium supplemented with 10% heat-inactivated fetal bovine serum and 1% penicillin-streptomycin double antibody, 37° C., and 5% CO2. Passage was achieved two to three times a week. When the cells were in the exponential growth phase, the cells were harvested, counted, and inoculated.
0.2 mL of cell suspension containing about 1×10^7 Kasumi-1 cells (cell suspended in 1:1 base RPMI 1640 medium and nutrient gel) was subcutaneously inoculated into the right back of female CB17 SCID mice. Grouping administration was started when the average tumor volume reached 100-150 mm^3. Grouping method: Animals were weighed prior to administration and tumor volume was measured. Grouping was performed according to the tumor volume, with 8 mice per group.
Health and death of the animals were monitored daily. Body weight was measured twice a week, and samples were collected after the last dose and the tumor weight was weighed.

For data set [6], the system named is A549 Lung cancer cells. The experiment in a line: Cell proliferation, Cell Titer-Glo. It is filed as cell-based. Conditions: Homo sapiens, 72 hours, read-out: Cellular inhibitory activity IC50 A549. How it is done:
(§7) Test method: The effect of compounds on cell proliferation of different cell lines was examined by Cell Titer-Glo method.
(§8) Each cell line was inoculated into a 96-well plate one day in advance, and after overnight incubation, drugs in different concentrations were added to a final concentration of 0-10000 nM, 3-5 folds dilution, for a total of 10 concentration points. After incubation for 72 hours, the mixture was added with Cell titer-Glo reagent equilibrated at room temperature, and shaken to incubation for 10 min, and then allowed to stand at room temperature for 2 min to stabilize the light signal. The multi-function microplate reader was used to read data from each well and analyze it.

For data set [7], the system named is BT-549 breast cancer cells. The experiment in a line: Cell proliferation, Cell Titer-Glo. It is filed as cell-based. Conditions: Homo sapiens, 72 hours, read-out: Cellular inhibitory activity IC50 BT-549. On the procedure:
as §7, §8
A general note: Cellular ATP, detected with luciferase, serves as a proxy for viable cell number.

Data set [8] has as its system MDA-MB-468 breast cancer cells. Kind of data set: Cell proliferation, Cell Titer-Glo. Format: cell-based. Conditions: Homo sapiens, 72 hours, read-out: Cellular inhibitory activity IC50 MDA-MB-468. How it is done: as §7, §8
The subject of data set [9] is D4475 breast cancer cells. Kind of data set: Cell proliferation, Cell Titer-Glo. Format: cell-based. Conditions: 72 hours, read-out: Cellular inhibitory activity IC50 D4475. On the procedure: as §7, §8
The mark [10] stands for this setting: intravenously 1 mg/kg single dose.

Like-named read-outs stand apart in the source and are kept apart here.

Sequence of Aurora B (Q96GD4 whole entry): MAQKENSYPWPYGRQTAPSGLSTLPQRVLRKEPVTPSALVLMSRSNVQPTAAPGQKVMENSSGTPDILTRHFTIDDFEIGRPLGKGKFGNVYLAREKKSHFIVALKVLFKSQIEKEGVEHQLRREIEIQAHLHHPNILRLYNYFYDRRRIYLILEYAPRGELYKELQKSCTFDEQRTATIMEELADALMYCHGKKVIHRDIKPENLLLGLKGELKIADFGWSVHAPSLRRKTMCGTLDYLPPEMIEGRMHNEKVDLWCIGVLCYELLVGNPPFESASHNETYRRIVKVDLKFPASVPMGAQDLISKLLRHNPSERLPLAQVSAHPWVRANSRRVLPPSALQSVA
Sequence of KDR(VEGFR2) (P35968 20-1356): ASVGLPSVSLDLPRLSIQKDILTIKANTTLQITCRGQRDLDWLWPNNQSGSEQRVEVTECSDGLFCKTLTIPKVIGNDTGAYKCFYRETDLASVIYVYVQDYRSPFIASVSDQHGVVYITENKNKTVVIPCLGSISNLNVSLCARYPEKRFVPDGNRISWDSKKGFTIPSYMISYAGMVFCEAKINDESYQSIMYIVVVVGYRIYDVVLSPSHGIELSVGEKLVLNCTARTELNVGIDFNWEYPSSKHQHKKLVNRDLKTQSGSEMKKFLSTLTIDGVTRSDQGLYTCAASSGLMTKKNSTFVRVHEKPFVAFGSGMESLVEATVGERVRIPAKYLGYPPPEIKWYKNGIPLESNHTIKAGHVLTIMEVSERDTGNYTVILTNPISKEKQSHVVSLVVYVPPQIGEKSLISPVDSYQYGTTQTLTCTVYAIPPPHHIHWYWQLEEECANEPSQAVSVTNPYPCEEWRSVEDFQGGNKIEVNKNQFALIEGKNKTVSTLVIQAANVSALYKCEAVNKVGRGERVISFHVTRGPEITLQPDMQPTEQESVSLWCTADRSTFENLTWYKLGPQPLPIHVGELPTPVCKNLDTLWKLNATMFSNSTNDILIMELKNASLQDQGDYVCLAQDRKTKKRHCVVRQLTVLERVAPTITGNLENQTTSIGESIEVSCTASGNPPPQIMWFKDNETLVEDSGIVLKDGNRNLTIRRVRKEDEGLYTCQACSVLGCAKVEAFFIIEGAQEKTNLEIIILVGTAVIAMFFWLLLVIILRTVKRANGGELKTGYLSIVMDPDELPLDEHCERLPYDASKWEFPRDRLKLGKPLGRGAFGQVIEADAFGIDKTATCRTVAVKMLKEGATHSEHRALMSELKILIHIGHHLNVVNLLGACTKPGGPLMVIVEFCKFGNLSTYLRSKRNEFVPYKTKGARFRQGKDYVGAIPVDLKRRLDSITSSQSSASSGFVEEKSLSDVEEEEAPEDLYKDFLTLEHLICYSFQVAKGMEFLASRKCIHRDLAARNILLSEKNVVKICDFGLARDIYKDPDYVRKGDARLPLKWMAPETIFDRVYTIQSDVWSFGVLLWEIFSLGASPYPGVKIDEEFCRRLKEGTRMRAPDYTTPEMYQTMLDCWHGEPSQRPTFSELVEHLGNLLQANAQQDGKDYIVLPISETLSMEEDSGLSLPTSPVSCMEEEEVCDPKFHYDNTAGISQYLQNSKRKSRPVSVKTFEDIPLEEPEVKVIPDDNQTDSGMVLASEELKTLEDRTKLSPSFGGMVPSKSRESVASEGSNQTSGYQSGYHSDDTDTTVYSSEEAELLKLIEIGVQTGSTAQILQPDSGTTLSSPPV

For the molecule `Cc1[nH]nc2c1N=C(c1ccccc1Cl)c1cnc(N3CCO[C@H](C)C3)cc1N2` (stereo in doubt) [Compound 40], the IC50 (in general, the concentration that inhibits the measured activity by half) in data set [1] amounted to 2.9 nM; in [2], 11 nM; in [3], 2.7 nM.

For `Cc1[nH]nc2c1N=C(c1ccccc1Cl)c1cnc(N3CCN(C)C(=O)C3)cc1N2` [Compound 43], the IC50 amounted to 1.8 nM in data set [1], 5.8 nM in [2] and 2.1 nM in [3].

Turning to `Cc1[nH]nc2c1N=C(c1ccccc1Cl)c1cnc(N3CCOCC3)cc1N2` [Crystal form I of compound 29, 4-(5-(2-chlorophenyl)-3-methyl-2,10-dihydropyrazolo[4,3-b]pyrido[4,3-e][1,4]diazepin-8-yl) morpholine], in data set [4] (dog, plasma, iv, intravenously 1 mg/kg single dose, read-out: AUCinf iv), the AUC(0-inf) is 4650 ng·h/mL. In [4] (dog, plasma, po, orally 2 mg/kg single dose), the Tmax (as a rule, the time at which the peak concentration occurs) came out at 2 h. Further, the AUC(0-inf) in [4] (dog, plasma, po, orally 2 mg/kg single dose, read-out: AUCinf po) turned out to be 8600 ng·h/mL. For the same molecule, in data set [4] (setting [10]), the Cl_obs iv worked out at 3.67 mL/min/kg, the Vz_obs iv is on record as 2.35 L/kg and the tz1/2 iv is given as 7.64 h. In data set [4] (orally 2 mg/kg single dose), the tZl1/2po was found to be 6.87 h. In [5] (5 mg/kg po), the “Tumor Weight” value came out at 0.435 ± 0.091 g and the “Tumor Growth Inhibition rate (TGI)” value is given as 69.58%. In [5] (15 mg/kg po), the “Tumor Weight” value was determined as 0.100 ± 0.014 g and the “Tumor Growth Inhibition rate (TGI)” value was found to be 92.98%. The “inhibitory effect on the Kasumi-1 cell xenograft model” value in [5] (result in words) was “significant inhibitory effect”.

For the molecule `Cc1[nH]nc2c1N=C(c1ccccc1Cl)c1cnc(N3CCN(C4CC4)CC3)cc1N2` [Compound 44], the IC50 in data set [1] was found to be 1.5 nM; in data set [2] it was 6.8 nM; in [3], 0.82 nM; in data set [6], 358 nM; in data set [7], 249 nM; in [8], 984 nM. Besides, in data set [9], the 50% inhibitory concentration (IC50) was determined as 101 nM.

With `Cc1[nH]nc2c1N=C(c1ccccc1Cl)c1cnc(N3CC4(COC4)C3)cc1N2` [Compound 48], the IC50 is 1.8 nM in data set [1], 5.2 nM in [2] and 1.4 nM in data set [3].

On to `Cc1[nH]nc2c1N=C(c1ccccc1Cl)c1cnc(N3CCN(C)[C@H](C)C3)cc1N2` [Compound 42], for which the IC50 was 9.7 nM in [1], 1.7 nM in [2] and 3 nM in data set [3].

Turning to `Cc1[nH]nc2c1N=C(c1ccccc1Cl)c1cnc(N3C[C@@H](C)N(C)[C@@H](C)C3)cc1N2` [Compound 41], the IC50 in data set [1] amounted to 7.9 nM; in [2], 24 nM; in data set [3], 15 nM.

As for `Cc1[nH]nc2c1N=C(c1ccccc1Cl)c1cnc(CN3CCNCC3)cc1N2` [Compound 38], the IC50 worked out at 4.2 nM in [1], 16 nM in data set [2] and 18 nM in data set [3].

Regarding `Cc1[nH]nc2c1N=C(c1ccccc1Cl)c1cnc(N3CCNCC3)cc1N2` [Compound 37], the results for the IC50 in data set [1], in [2] and in [3] were 1.7 nM, 8.8 nM and 5.4 nM, respectively.

Regarding `Cc1[nH]nc2c1N=C(c1ccccc1Cl)c1cnc(N3CC4CC3CO4)cc1N2` (stereo not drawn) [Compound 45], the IC50 is 0.3 nM in data set [1]; 4.7 nM in data set [2]; 1 nM in data set [3]; 507 nM in data set [6]; 186 nM in data set [7]; 491 nM in [8]. For the same molecule, the IC50 in data set [9] was determined as 171 nM.

Turning to `Cc1[nH]nc2c1N=C(c1ccccc1Cl)c1cnc(N3CC4COCC4C3)cc1N2` (stereo not drawn) [Compound 46], the IC50 stood at 0.53 nM in data set [1]; 3.1 nM in data set [2]; 0.41 nM in data set [3]; 211 nM in [6]; 83 nM in data set [7]; 319 nM in [8]. In addition, the IC50 in [9] worked out at 48 nM.

(Values after patent publication US11718620B2, “Method for treating a cancer mediated by abnormality of multi-kinases” (TransThera Sciences (Nanjing), Inc., priority 2016, dated 2023).)
